Source: the NIST ThermoML archive (doi:10.1021/je300678r)
Where “and” joins values, the source holds several entries; their conditions need not be identical. Equal entries are not always repeated.

How the values were obtained:
[1] = refractive index (Na D-line) (dimensionless); xn = mol fraction of the nth substance listed; conditions: 298.15 K, 101 kPa, Liquid, Standard Abbe refractometry
[2] = excess molar enthalpy (molar enthalpy of mixing); xn = mol fraction of the nth substance listed; conditions: 298.15 K, 101 kPa, Liquid, Flow calorimetry
[3] = xn = mol fraction of the nth substance listed; conditions: 298.15 K, 101 kPa, Liquid, Vibrating tube method
[4] = refractive index (Na D-line) (dimensionless); conditions: 101.33 kPa, Liquid, Standard Abbe refractometry
[5] = Liquid; for mass density: 101.33 kPa, Vibrating tube method; for vapor or sublimation pressure: Ebulliometric method (Recirculating still)

CCC(C)O (centres undefined) [butan-2-ol] + CC(=O)CC(C)C
Conditions	refractive index
[1], x2 = 0	1.39512

CC(=O)CC(C)C [4-methylpentan-2-one] + CCC(C)O
Conditions	excess molar enthalpy, [2]	mass density, [3]	refractive index, [1]
x1 = 0.0502	–	–	1.39473
x1 = 0.1005	–	–	1.39443
x1 = 0.1009	0.161 kcal/mol	800.64 kg/m3	–
x1 = 0.2005	–	–	1.39392
x1 = 0.2009	0.272 kcal/mol	799.14 kg/m3	–
x1 = 0.3007	0.344 kcal/mol	798.02 kg/m3	–
x1 = 0.3998	–	–	1.39335
x1 = 0.4015	0.384 kcal/mol and 0.385 kcal/mol	797.16 kg/m3 and 797.13 kg/m3	–
x1 = 0.5008	0.396 kcal/mol	796.55 kg/m3	–
x1 = 0.602	–	–	1.39309
x1 = 0.6021	0.38 kcal/mol	796.12 kg/m3	–
x1 = 0.7004	0.336 kcal/mol	795.9 kg/m3	–
x1 = 0.7988	–	–	1.39313
x1 = 0.7998	0.262 kcal/mol	795.84 kg/m3	–
x1 = 0.8985	–	–	1.39325
x1 = 0.8998	0.155 kcal/mol	795.97 kg/m3	–
x1 = 0.9508	–	–	1.39335
x1 = 1	–	–	1.39346

CCCCC(CC)CO (centres undefined) [2-ethyl-1-hexanol]
Conditions	mass density [kg/m3]	refractive index	vapor or sublimation pressure [kPa]
[4], 297.86 K	–	1.4295	–
[4], 298.15 K	–	1.42949	–
[5], 297.86 K	828.8	–	–
[5], 389.76 K	–	–	9.88
[5], 407.11 K	–	–	19.88
[5], 418.24 K	–	–	30.03
[5], 426.95 K	–	–	39.67
[5], 430.79 K	–	–	45.05
[5], 433.51 K	–	–	49.22
[5], 437.24 K	–	–	55.52
[5], 439.49 K	–	–	59.61
[5], 442.12 K	–	–	64.64
[5], 445 K	–	–	70.55
[5], 447.04 K	–	–	75.01
[5], 449.02 K	–	–	79.55
[5], 451.06 K	–	–	84.49
[5], 456.77 K	–	–	99.44
[5], 457.83 K	–	–	102.2
[5], 458.23 K	–	–	102.91
[5], 458.24 K	–	–	103.26

CC(=O)CC(C)C [4-methylpentan-2-one]
Conditions	mass density [kg/m3]	refractive index	vapor or sublimation pressure [kPa]
[4], 297.84 K	–	1.3935	–
[4], 298.15 K	–	1.39346 and 1.39352	–
[5], 297.84 K	796.4	–	–
[5], 340.18 K	–	–	19.35
[5], 340.66 K	–	–	19.78
[5], 343.42 K	–	–	21.92
[5], 351.55 K	–	–	30.01
[5], 352.71 K	–	–	31.12
[5], 353.11 K	–	–	31.71
[5], 359.22 K	–	–	39.35
[5], 359.39 K	–	–	39.63
[5], 359.58 K	–	–	40.05
[5], 362.88 K	–	–	44.7
[5], 365.9 K	–	–	49.68
[5], 366.61 K	–	–	50.66
[5], 368.06 K	–	–	53.01
[5], 368.07 K	–	–	53.42
[5], 368.14 K	–	–	53.26
[5], 368.15 K	–	–	53.24
[5], 368.7 K	–	–	54.29
[5], 371.34 K	–	–	59.43
[5], 371.64 K	–	–	59.75
[5], 371.91 K	–	–	60.19
[5], 374.37 K	–	–	65.18
[5], 376.26 K	–	–	69.16
[5], 376.49 K	–	–	69.98
[5], 378.8 K	–	–	74.83
[5], 380.65 K	–	–	79.56
[5], 381.06 K	–	–	80.16
[5], 382.66 K	–	–	84.16
[5], 384.99 K	–	–	90.58
[5], 388.07 K	–	–	98.7
[5], 388.31 K	–	–	99.4
[5], 388.63 K	–	–	100.35
[5], 388.65 K	–	–	100.41
[5], 389.06 K	–	–	101.85
[5], 389.49 K	–	–	102.78

CC(=O)CC(C)C [4-methylpentan-2-one] + CCCCC(CC)CO
Conditions	refractive index
[1], x1 = 1	1.39346

CCC(C)(C)O [2-methylbutan-2-ol]
Conditions	mass density [kg/m3]	refractive index	vapor or sublimation pressure [kPa]
[4], 297.85 K	–	1.4025	–
[4], 298.15 K	–	1.40253	–
[5], 297.85 K	805.3	–	–
[5], 336.04 K	–	–	19.84
[5], 344.75 K	–	–	29.94
[5], 351.29 K	–	–	39.96
[5], 356.6 K	–	–	49.95
[5], 361.18 K	–	–	60.05
[5], 365.4 K	–	–	70.74
[5], 368.07 K	–	–	78.27
[5], 368.16 K	–	–	78.09
[5], 368.75 K	–	–	80.2
[5], 371.97 K	–	–	90.23
[5], 375.14 K	–	–	100.74
[5], 375.38 K	–	–	101.88
[5], 375.53 K	–	–	102.61

CCC(C)O (centres undefined) [butan-2-ol]
Conditions	mass density, 297.83 K [kg/m3]	refractive index, 297.83 K	refractive index, 298.15 K	vapor or sublimation pressure, 358.16 K [kPa]	vapor or sublimation pressure, 367.97 K	vapor or sublimation pressure, 372.43 K [kPa]	vapor or sublimation pressure, 372.71 K [kPa]
[4]	–	1.3951	1.39512	–	–	–	–
[5]	802.7	–	–	57.27	84.94 kPa and 85.16 kPa	100.62	101.88

CC(=O)CC(C)C [4-methylpentan-2-one] + CCC(C)(C)O
Conditions	refractive index
[1], x1 = 1	1.39352

CCCCC(CC)CO (centres undefined) [2-ethyl-1-hexanol] + CC(=O)CC(C)C
Conditions	excess molar enthalpy, [2]	mass density, [3]	refractive index, [1]
x2 = 0	–	–	1.42949
x2 = 0.0516	–	–	1.42806
x2 = 0.1009	0.132 kcal/mol	826.11 kg/m3	–
x2 = 0.1017	–	–	1.4266
x2 = 0.2001	0.236 kcal/mol	823.29 kg/m3	–
x2 = 0.2045	–	–	1.42351
x2 = 0.3019	0.313 kcal/mol	820.27 kg/m3	–
x2 = 0.397	–	–	1.41723
x2 = 0.4014	0.361 kcal/mol	817.23 kg/m3	–
x2 = 0.5009	0.38 kcal/mol	813.99 kg/m3	–
x2 = 0.6018	0.371 kcal/mol	810.67 kg/m3	–
x2 = 0.605	–	–	1.41
x2 = 0.7019	0.329 kcal/mol	807.13 kg/m3	–
x2 = 0.7986	–	–	1.40249
x2 = 0.8009	0.258 kcal/mol and 0.257 kcal/mol	803.8 kg/m3 and 803.62 kg/m3	–
x2 = 0.9004	0.149 kcal/mol	800.06 kg/m3	–
x2 = 0.9051	–	–	1.39848
x2 = 0.9491	–	–	1.39587

CCC(C)(C)O [2-methylbutan-2-ol] + CC(=O)CC(C)C
Conditions	excess molar enthalpy, [2] [kcal/mol]	mass density, [3]	refractive index, [1]
x2 = 0	–	–	1.40253
x2 = 0.0598	–	–	1.40217
x2 = 0.1012	0.106	804.47 kg/m3	–
x2 = 0.1216	–	–	1.40156
x2 = 0.2017	0.196	803 kg/m3	–
x2 = 0.2171	–	–	1.40043
x2 = 0.3013	0.263	801.45 kg/m3	–
x2 = 0.4017	0.307	800.01 kg/m3 and 800 kg/m3	–
x2 = 0.4095	–	–	1.39811
x2 = 0.5008	0.327	798.73 kg/m3	–
x2 = 0.5982	–	–	1.39615
x2 = 0.6006	0.321	797.67 kg/m3	–
x2 = 0.7009	0.288	796.87 kg/m3	–
x2 = 0.8017	0.227	796.33 kg/m3	–
x2 = 0.8202	–	–	1.39439
x2 = 0.9007	0.132	796.12 kg/m3	–
x2 = 0.9177	–	–	1.39383
x2 = 0.9563	–	–	1.39364
